Among the test systems are HOP-92; RXF 393; COLO 205; SF-539; NCI/ADR-RES; EKVX; SF-268; IGROV-1; HOP-62; HCC 2998; KM-20L2; SNB-19; KM12; MCF7; DLD-1; LOX IMVI; SK-OV-3; ACHN; TK-10; SR.
Test in all cases: inhibition of tumour cell growth, NCI panel, 48 h

The results in this text go back to ChEMBL document CHEMBL1201862, “PubChem BioAssay data set” (2004).

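Test compounds were applied to cells in 96-well plates for 48 hours at 5 doses. The concentration for 50% growth inhibition is given as GI50.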 The source made the active and inactive calls. No stated cut-off is given here; in the data, active = GI50 up to about 1.1 µM and inactive = higher.

In the case of `CCOC(=O)NC(=O)c1cn(CCN(CCO)C(=O)NCCCCCCNC(=O)N(CCO)CCn2cc(C(=O)NC(=O)OCC)c(=O)[nH]c2=O)c(=O)[nH]c1=O`, the GI50 in the test with HOP-92, in the test on RXF 393, in the test with COLO 205, in the test on SF-539, in the test with NCI/ADR-RES and in the test on EKVX was > 100 µM (inactive) each time. Further, the GI50 in the test on SF-268, in the test on IGROV-1, in the test with HOP-62, with HCC 2998, with KM-20L2 and with SNB-19 was > 100 µM (inactive) each time. Moreover, the GI50 with KM12, with MCF7, in the test with DLD-1 and in the test on LOX IMVI was > 100 µM (inactive) throughout.

On to `CCCCCCCCCOCC(COP(=O)([O-])OCC[N+](C)(C)C)OC` (configuration not stated), for which the GI50 in the test on HOP-92, with RXF 393, in the test with COLO 205, in the test with SF-539, with SK-OV-3 and in the test on NCI/ADR-RES was > 100 µM (inactive) in each case. For the same molecule, the GI50 in the test with EKVX is > 100 µM (inactive); with SF-268, > 100 µM (inactive); in the test on IGROV-1, > 65.6 µM (inactive); in the test on HOP-62, > 100 µM (inactive); in the test on HCC 2998 it was > 100 µM (inactive); with KM-20L2, > 100 µM (inactive). Also, the GI50 with SNB-19 was > 100 µM (inactive); in the test on KM12 it was > 100 µM (inactive); in the test with MCF7, 68.7 µM (inactive); with DLD-1, > 100 µM (inactive); with LOX IMVI it was > 100 µM (inactive).

With `NS(=O)(=O)C1CCCCC1C(=O)NNC(=O)C(=O)Nc1nnc(S)[nH]1` (configuration not stated), the GI50 in the test with ACHN, with HOP-92, in the test with RXF 393, in the test on COLO 205, in the test on TK-10 and in the test on SF-539 was > 100 µM (inactive) in each case. Besides, the GI50 in the test with SK-OV-3, in the test with SR, in the test on EKVX, in the test on SF-268, in the test with IGROV-1 and in the test on HOP-62 was > 100 µM (inactive) in each case. Besides, the GI50 with HCC 2998, with KM-20L2, in the test on SNB-19, in the test on KM12, in the test on DLD-1 and in the test on LOX IMVI was > 100 µM (inactive) in each case.

With `CC(C)NC(=O)OCc1c2c(n(C)c1COC(=O)NC(C)C)-c1ccccc1CC2`, the GI50 in the test with HOP-92 is 6.73 µM (inactive); in the test on RXF 393, 12.5 µM (inactive); in the test on COLO 205, 8.05 µM (inactive); in the test on SF-539 it was 15.4 µM (inactive); in the test with SK-OV-3, 15.7 µM (inactive); in the test with NCI/ADR-RES, 15 µM (inactive). The GI50 in the test with EKVX is 14.9 µM (inactive); in the test on SF-268, 10.2 µM (inactive); in the test with IGROV-1, 14 µM (inactive); with HOP-62 it was 13 µM (inactive); with HCC 2998 it was 13.1 µM (inactive); with KM-20L2, 14 µM (inactive). Besides, the GI50 in the test on SNB-19 is 14.6 µM (inactive); with KM12, 15.5 µM (inactive); with MCF7, 10.5 µM (inactive); in the test on DLD-1, 11.9 µM (inactive); with LOX IMVI it was 9.31 µM (inactive).

Turning to `Cc1ccc2c(=O)c3ccccc3sc2c1`, the GI50 in the test with ACHN, in the test with RXF 393, in the test on COLO 205, in the test on TK-10, with SF-539 and in the test with SK-OV-3 was > 100 µM (inactive) each time. Further, the GI50 is 79.4 µM (inactive) with SR; 55.2 µM (inactive) in the test on EKVX; > 100 µM (inactive) in the test on SF-268; > 100 µM (inactive) in the test with IGROV-1; > 100 µM (inactive) with HOP-62; > 100 µM (inactive) in the test on HCC 2998. Besides, the GI50 in the test on KM-20L2 was > 100 µM (inactive); in the test with SNB-19 it was 66.4 µM (inactive); in the test on KM12 it was 53.7 µM (inactive); in the test on DLD-1, > 100 µM (inactive); in the test with LOX IMVI it was > 100 µM (inactive).

With `COc1ccc(-c2c3ccccc3c(-c3ccc(OCCCCCBr)cc3)c3ccccc23)cc1`, the GI50 with ACHN, in the test on HOP-92, in the test with COLO 205, in the test on TK-10, in the test on SF-539 and in the test with SK-OV-3 was > 100 µM (inactive) in each case. Moreover, the GI50 with SR, in the test with EKVX, in the test on SF-268, in the test with IGROV-1, in the test on HOP-62 and in the test with HCC 2998 was > 100 µM (inactive) throughout. In addition, the GI50 in the test with KM-20L2, in the test on SNB-19, in the test on KM12, in the test with DLD-1 and in the test on LOX IMVI was > 100 µM (inactive) each time.

Consider `CN(C)c1ccc(/N=C2/C=CC(=C(C#N)C#N)c3ccccc32)cc1`, for which the GI50 was 0.485 µM (active) with ACHN; 0.07 µM (active) with HOP-92; 0.46 µM (active) in the test with RXF 393; 0.0957 µM (active) in the test with COLO 205; 1.82 µM (inactive) with TK-10; 0.208 µM (active) in the test on SF-539. The GI50 with SK-OV-3 is 0.332 µM (active); in the test with NCI/ADR-RES it was 0.0975 µM (active); with SR it was 0.0345 µM (active); in the test on EKVX it was 0.955 µM (active); in the test on SF-268, 0.38 µM (active); with IGROV-1, 0.222 µM (active). In addition, the GI50 with HOP-62 was 0.468 µM (active); with HCC 2998, 0.244 µM (active); with KM-20L2, 0.209 µM (active); in the test with SNB-19 it was 0.536 µM (active); with KM12 it was 0.381 µM (active); in the test with MCF7, 0.178 µM (active). Besides, the GI50 is 0.294 µM (active) with DLD-1 and 0.282 µM (active) with LOX IMVI.

`CCCCCCc1ccc(O)cc1O` [HEXYLRESORCINOL]: the GI50 was 30.6 µM (inactive) in the test with HOP-92; > 75.2 µM (inactive) in the test with RXF 393; > 100 µM (inactive) with COLO 205; > 80.7 µM (inactive) in the test on SF-539; > 100 µM (inactive) in the test with SK-OV-3; 38.4 µM (inactive) with NCI/ADR-RES. Besides, the GI50 is > 64.7 µM (inactive) in the test with EKVX; 87.3 µM (inactive) with SF-268; 45.5 µM (inactive) in the test on IGROV-1; 57.8 µM (inactive) in the test with HOP-62; > 100 µM (inactive) in the test with HCC 2998; > 100 µM (inactive) with KM-20L2. The GI50 with SNB-19 was 43.7 µM (inactive); with KM12, 62.2 µM (inactive); with MCF7, 81.1 µM (inactive); in the test with DLD-1, 72.6 µM (inactive); in the test on LOX IMVI, > 100 µM (inactive).

As to `O=C1CNC(=O)N1` [HYDANTOIN], the GI50 is > 11.2 µM (inactive) in the test on HOP-92; > 1120 µM (inactive) in the test with RXF 393; > 1120 µM (inactive) in the test on COLO 205; > 1120 µM (inactive) in the test on SF-539; > 1120 µM (inactive) in the test on SK-OV-3; > 1120 µM (inactive) with NCI/ADR-RES. Further, the GI50 with EKVX, with SF-268, in the test on IGROV-1, in the test with HOP-62, in the test with HCC 2998 and with KM-20L2 was > 1120 µM (inactive) each time. Further, the GI50 in the test with SNB-19, in the test on KM12, with MCF7, in the test with DLD-1 and in the test on LOX IMVI was > 1120 µM (inactive) in each case.

`O=C1N[C@@H]2C(=C[C@H](O)[C@@H](O)[C@H]2O)c2cc3c(c(O)c21)OCO3` [NARCICLASINE]: the GI50 in the test with HOP-92, in the test with SF-539, in the test on SK-OV-3, in the test with NCI/ADR-RES, with EKVX and with SF-268 was 0.045 µM (active) in each case. The GI50 in the test with IGROV-1, in the test with HOP-62, with HCC 2998, in the test with KM-20L2, in the test with SNB-19 and with KM12 was 0.045 µM (active) in each case. In addition, the GI50 with DLD-1 and in the test on LOX IMVI was 0.045 µM (active) in each case.

In the case of `CC(=O)CC(=O)CCC(=O)O` [SUCCINYLACETONE], the GI50 with ACHN is > 100 µM (inactive); in the test with HOP-92, < 0.01 µM (active); in the test with RXF 393, > 100 µM (inactive); with COLO 205 it was > 100 µM (inactive); in the test with TK-10 it was > 100 µM (inactive); in the test on SF-539, > 100 µM (inactive). For the same molecule, the GI50 with SK-OV-3, with SR, in the test on EKVX, in the test with SF-268, in the test on IGROV-1 and in the test on HCC 2998 was > 100 µM (inactive) in each case. Further, the GI50 was > 100 µM (inactive) in the test on KM-20L2; > 100 µM (inactive) in the test on SNB-19; 47.4 µM (inactive) in the test with KM12; > 100 µM (inactive) in the test on DLD-1; > 100 µM (inactive) in the test with LOX IMVI.
